“Also recorded” adds a separate entry of the source. Where two headings read alike, the source gives them in different places.
Key:
[1] = tested on: latent HIV-1 infection in CA5 T cells; type: cell-based; settings: for HIV-1 reactivation in combination with bryostatin: 24 hour pretreatment with proteasome inhibitor, bryostatin titrated; for HIV-1 reactivation in combination with bryostatin / HIV-1 reactivation in combination with disulfiram: read 24 hours after addition; for HIV-1 reactivation by the proteasome inhibitor by itself: CA5 T cells pretreated 24 hours; for HIV-1 reactivation in combination with disulfiram: 24 hour pretreatment with bortezomib, disulfiram titrated, FIG. 3
Description: (§1) Increased protein-ubiquitination for targeting to the proteasome by the E3 ubiquitin ligase GRAIL is a hallmark of T cell anergy. […] FIG. 2B is a graph showing bortezomib in combination with the activator bryostatin. FIG. 2C is a graph showing bortezomib in combination with the activator prostratin.
CA5 T cells were pretreated for 24 hours with bortezomib. Disulfiram was titrated on control cells or bortezomib pretreated T cells. Reactivation was measured 24 hours after disulfiram addition by determining the percentage of GFP-positive cells using flow cytometric analysis.
CA5 T cells were pretreated for 24 hours with carfilzomib. Bryostatin was titrated on control cells or carfilzomib pretreated T cells. Reactivation was measured 24 hours after bryostatin addition by determining the percentage of GFP-positive cells using flow cytometric analysis.
As mentioned above, T cell anergy has been reported to be associated with a series of changes in the kinase activity profile. A hallmark of T cell anergy is the expression of GRAIL (gene related to anergy in lymphocytes), a trans-membrane RING finger ubiquitin E3 ligase (Anandasabapathy et al., Immunity 18:535-547 (2003)). As other ubiquitin ligases, GRAIL tags proteins for degradation by the proteasome. […] In order to determine this, two FDA-approved proteasome inhibitors, bortezomib and carfilzomib, were tested for their ability to mobilize latent HIV-1 infection, either by themselves, or in combination with potentially therapeutically relevant known HIV-1 reactivating activators, such as bryostatin, prostratin, and disulfiram.

[2] = tested on: latently HIV-1 infected EF7 and CA5 T cells; settings: PMA stimulation; cited from earlier work
[3] = tested on: latent HIV-1 infection in J2574 reporter T cells; assay: Establishment of latent HIV-1 infection in J2574 reporter T cells after ionomycin pretreatment; type: cell-based; settings: ionomycin pretreatment of J2574 T cells versus untreated control, independent of the level of virus input, FIG. 2A
Text: as §1, with “FIGS. 2A, 2B, and 2C show targeting anergy-related mechanisms alters HIV-1 latency control. […] Increased” for “Increased”
Without being bound by any theory, a working concept derived from the altered cellular phenotype observed in latently HIV-1 infected T cells could be that HIV-1 latency is correlated with the induction of a pseudoanergic state of the host-cell. HIV-1 infection has been reported to be associated with high levels of induced T cell anergy. Exposure to gp120 has been reported to be sufficient to trigger T cell anergy (Bouhdoud et al., Journal of Virology 74:2121-2130 (2000); Dybul et al., J. Immunol. 165:1685-91 (2000); Masci et al., Journal of Leukocyte Biology 74:1117-1124 (2003); and Schols and De Clercq, Journal of Virology 70:4953-4960 (1996)). Also, other retroviruses are reported to induce epigenetic changes in their host cells. Ubiquitin and CDK2 are also known to be involved in T cell anergy (Greenwald et al., Immunity 14:145-155 (2001); and Li et al., Nature Immunology 7:1157-65 (2006)). […]

Structure (SMILES): CC(C)C[C@H](NC(=O)[C@H](CCc1ccccc1)NC(=O)CN1CCOCC1)C(=O)N[C@@H](Cc1ccccc1)C(=O)N[C@@H](CC(C)C)C(=O)[C@@]1(C)CO1 [carfilzomib]
- HIV-1 reactivation in combination with bryostatin ([1]; CA5 T cells): trigger HIV-1 reactivation
- HIV-1 reactivation in combination with bryostatin ([1]; CA5 T cells, listed as Carfilzomib): potently interacted
- HIV-1 reactivation by the proteasome inhibitor by itself [1]: triggered HIV-1 reactivation

Structure (SMILES): CC(C)C[C@H](NC(=O)[C@H](Cc1ccccc1)NC(=O)c1cnccn1)B(O)O [bortezomib]
- HIV-1 reactivation in combination with prostratin ([1]; 24 hour pretreatment with bortezomib (5 nM), prostratin titrated, CA5 T cells, FIG. 2C): interacted with prostratin
- HIV-1 reactivation in combination with disulfiram ([1]; CA5 T cells): synergistically trigger HIV-1 reactivation
- HIV-1 reactivation in combination with disulfiram ([1]; CA5 T cells, listed as Bortezomib): interacted
- activator concentrations required to trigger full HIV-1 reactivation at the population level ([1]; 24 hour pretreatment with proteasome inhibitor (bortezomib 5 nM), activators bryostatin or prostratin, CA5 T cells): reduces
- HIV-1 reactivation in combination with bryostatin ([1]; CA5 T cells): highly synergistic
- latently infected T cells in which latent HIV-1 infection was mobilized ([1]; bortezomib 5 nM by itself, CA5 T cells, FIG. 2B): ~30%
- HIV-1 reactivation by the proteasome inhibitor by itself [1]: mobilizes latent HIV-1 infection

Structure (SMILES): CCCCCCCCCCCCCC(=O)O[C@@H]1[C@@H](C)[C@@]2(O)[C@@H](C=C(CO)C[C@]3(O)C(=O)C(C)=C[C@@H]23)[C@@H]2C(C)(C)[C@]12OC(C)=O [PMA, phorbol 12-myristate 13-acetate]
- reactivation at the population level [2]: > 90%

Structure (SMILES): C[C@H](CCC(=O)O)C[C@H](C)C[C@H](C)C(=O)/C=C(\O)[C@H](C)C[C@H](C)C/C=C/[C@@H](C)[C@@H](O)[C@@H](C)[C@@H](O)C[C@@H]1CC[C@@](C)([C@H]2CC[C@@](C)([C@@H](C)O)O2)O1 [ionomycin]
- amount of established stable latent infection events [3]: promotes the establishment of latent HIV-1 infection; also recorded: almost doubled
